# Assay results as given in US6737383B1, “Herbicidal oxadiazolidines” (priority 1999, dated 2004).
# Tests used:
# blackgrass = assay: Test B pre/postemergence blackgrass; assay type: in vivo, Alopecurus myosuroides
# Outline: (§1)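 Test chemicals in a non-phytotoxic solvent mixture with surfactant were sprayed preemergence onto planted seeds and postemergence onto plants 2 to 18 cm tall (1- to 4-leaf stage). After twelve to sixteen days in a greenhouse, injury was visually rated against untreated controls from 0 (no effect) to 10 (complete control).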
# surinam grass = assay: Test B pre/postemergence surinam grass; assay type: in vivo, Brachiaria decumbens
# Outline: as §1
# corn = assay: Test B pre/postemergence corn; assay type: in vivo, Zea mays
# Outline: as §1
# crabgrass = assay: Test B pre/postemergence crabgrass; assay type: in vivo, Digitaria sanguinalis
# Outline: as §1
# giant foxtail = assay: Test B pre/postemergence giant foxtail; assay type: in vivo, Setaria faberii
# Outline: as §1
# morningglory = assay: Test B pre/postemergence morningglory; assay type: in vivo, Ipomoea hederacea
# Outline: as §1
# pigweed = assay: Test B pre/postemergence pigweed; assay type: in vivo, Amaranthus retroflexus
# Outline: as §1
# rape = assay: Test B pre/postemergence rape; assay type: in vivo, Brassica napus
# Outline: as §1
# soybean = assay: Test B pre/postemergence soybean; assay type: in vivo, Glycine max
# Outline: as §1
# velvetleaf = assay: Test B pre/postemergence velvetleaf; assay type: in vivo, Abutilon theophrasti
# Outline: as §1
# wheat = assay: Test B pre/postemergence wheat; assay type: in vivo, Triticum aestivum
# Outline: as §1
# wild oat = assay: Test B pre/postemergence wild oat; assay type: in vivo, Avena fatua
# Outline: as §1
# purple nutsedge = assay: Test B pre/postemergence purple nutsedge; assay type: in vivo, Cyperus rotundus
# Outline: as §1
# rice = assay: Test B flood test rice; assay type: in vivo, Oryza sativa; conditions: for Rice plant response rating: scale of 0 to 10 where 0 is no effect and 10 is complete control
# Outline: (§2)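 Each value is a visual injury score relative to controls, with 10 meaning complete control and 0 no effect. Evaluation took place twelve to sixteen days after the 2-leaf-stage plants were treated and kept in the greenhouse.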
# duck salad = assay: Test B flood test duck salad; assay type: in vivo, Heteranthera limosa; conditions: for Plant response rating, Ducksalad: scale 0 to 10, 0 is no effect, 10 is complete control; for Ducksalad plant response rating: scale of 0 to 10 where 0 is no effect and 10 is complete control
# Outline: as §2
# [1] = Postemergence, Rate 125 g/ha, scale 0 to 10, 0 is no effect, 10 is complete control
# [2] = Postemergence, Rate 250 g/ha, scale 0 to 10, 0 is no effect, 10 is complete control
# [3] = Postemergence, Rate 500 g/ha, scale of 0 to 10 where 0 is no effect and 10 is complete control
# [4] = Preemergence, Rate 62 g/ha, scale 0 to 10 (0 no effect, 10 complete control)
# [5] = Preemergence, Rate 125 g/ha, scale of 0 to 10 where 0 is no effect and 10 is complete control
# [6] = Preemergence, Rate 250 g/ha, scale of 0 to 10 where 0 is no effect and 10 is complete control
# [7] = Preemergence, Rate 500 g/ha, scale 0 to 10, 0 is no effect, 10 is complete control
# [8] = Rate 62 g/ha, Postemergence, scale of 0 to 10 where 0 is no effect and 10 is complete control
# [9] = Preemergence, Rate 250 g/ha, scale 0 to 10, 0 is no effect, 10 is complete control
# [10] = Postemergence section (flood test species), Rate 500 g/ha
# [11] = Rate 62 g/ha, Postemergence (flood test species)
smiles,measurement,setting,value
CC(=O)C(C)n1c(=O)on(C(=O)N(c2ccc(F)cc2)C(C)C)c1=O (stereo not shown) [Compound 400],"Plant response rating, Blackgrass",blackgrass; [1],4
same,"Plant response rating, Blackgrass",blackgrass; [2],8
same,Blackgrass plant response rating,blackgrass; [3],8
same,"Plant response rating, Blackgrass",blackgrass; [4],0
same,"Plant response rating, Blackgrass",blackgrass; [5],0
same,Blackgrass plant response rating,blackgrass; [6],0
same,Blackgrass plant response rating,blackgrass; [7],0
same,Blackgrass plant response rating,blackgrass; [8],0
same,"Plant response rating, B. signalgrass",surinam grass; [1],2
same,"Plant response rating, B. signalgrass",surinam grass; [2],3
same,B. signalgrass plant response rating,surinam grass; [3],4
same,"Plant response rating, B. signalgrass",surinam grass; [4],0
same,"Plant response rating, B. signalgrass",surinam grass; [5],0
same,B. signalgrass plant response rating,surinam grass; [6],2
same,B. signalgrass plant response rating,"surinam grass; Preemergence, Rate 500 g/ha, scale of 0 to 10 where 0 is no effect and 10 is complete control",4
same,B. signalgrass plant response rating,surinam grass; [8],0
same,"Plant response rating, Corn",corn; [1],0
same,"Plant response rating, Corn",corn; [2],0
same,Corn plant response rating,corn; [3],0
same,"Plant response rating, Corn",corn; [4],0
same,"Plant response rating, Corn",corn; [5],0
same,Corn plant response rating,corn; [9],2
same,Corn plant response rating,corn; [7],2
same,Corn plant response rating,corn; [8],0
same,"Plant response rating, Crabgrass",crabgrass; [2],6
same,Crabgrass plant response rating,crabgrass; [3],9
same,"Plant response rating, Crabgrass",crabgrass; [4],6
same,"Plant response rating, Crabgrass",crabgrass; [5],9
same,Crabgrass plant response rating,crabgrass; [9],10
same,Crabgrass plant response rating,crabgrass; [7],10
same,Crabgrass plant response rating,crabgrass; [8],0
same,"Plant response rating, Giant foxtail",giant foxtail; [1],8
same,"Plant response rating, Giant foxtail",giant foxtail; [2],9
same,Giant foxtail plant response rating,giant foxtail; [3],9
same,"Plant response rating, Giant foxtail",giant foxtail; [4],9
same,"Plant response rating, Giant foxtail",giant foxtail; [5],9
same,Giant foxtail plant response rating,giant foxtail; [9],10
same,Giant foxtail plant response rating,giant foxtail; [7],10
same,Giant foxtail plant response rating,giant foxtail; [8],5
same,"Plant response rating, Morningglory",morningglory; [2],3
same,Morningglory plant response rating,morningglory; [3],6
same,"Plant response rating, Morningglory",morningglory; [4],0
same,"Plant response rating, Morningglory",morningglory; [5],0
same,Morningglory plant response rating,morningglory; [9],0
same,Morningglory plant response rating,morningglory; [7],0
same,Morningglory plant response rating,morningglory; [8],0
same,"Plant response rating, Redroot pigweed",pigweed; [2],0
same,Redroot pigweed plant response rating,pigweed; [3],0
same,"Plant response rating, Redroot pigweed",pigweed; [4],3
same,"Plant response rating, Redroot pigweed",pigweed; [5],4
same,Redroot pigweed plant response rating,pigweed; [9],6
same,Redroot pigweed plant response rating,pigweed; [7],6
same,Redroot pigweed plant response rating,pigweed; [8],0
same,"Plant response rating, Rape",rape; [2],0
same,Rape plant response rating,rape; [3],0
same,"Plant response rating, Rape",rape; [4],0
same,"Plant response rating, Rape",rape; [5],0
same,Rape plant response rating,rape; [9],0
same,Rape plant response rating,rape; [7],0
same,Rape plant response rating,rape; [8],0
same,"Plant response rating, Soybean",soybean; [2],4
same,Soybean plant response rating,soybean; [3],4
same,"Plant response rating, Soybean",soybean; [4],0
same,"Plant response rating, Soybean",soybean; [5],0
same,Soybean plant response rating,soybean; [9],0
same,Soybean plant response rating,soybean; [7],0
same,Soybean plant response rating,soybean; [8],1
same,"Plant response rating, Velvetleaf",velvetleaf; [2],0
same,Velvetleaf plant response rating,velvetleaf; [3],0
same,"Plant response rating, Velvetleaf",velvetleaf; [4],0
same,"Plant response rating, Velvetleaf",velvetleaf; [5],0
same,Velvetleaf plant response rating,velvetleaf; [9],0
same,Velvetleaf plant response rating,velvetleaf; [7],2
same,Velvetleaf plant response rating,velvetleaf; [8],0
same,Wheat plant response rating,wheat; [3],0
same,"Plant response rating, Wheat",wheat; [4],0
same,"Plant response rating, Wheat",wheat; [5],0
same,Wheat plant response rating,wheat; [9],0
same,Wheat plant response rating,wheat; [7],0
same,Wheat plant response rating,wheat; [8],0
same,Wild oats plant response rating,wild oat; [3],0
same,"Plant response rating, Wild oats",wild oat; [4],0
same,"Plant response rating, Wild oats",wild oat; [5],0
same,Wild oats plant response rating,wild oat; [9],0
same,Wild oats plant response rating,wild oat; [7],0
same,Wild oats plant response rating,wild oat; [8],0
same,"Plant response rating, Nutsedge",purple nutsedge; [2],0
same,Nutsedge plant response rating,purple nutsedge; [3],0
same,"Plant response rating, Nutsedge",purple nutsedge; [4],0
same,"Plant response rating, Nutsedge",purple nutsedge; [5],0
same,Nutsedge plant response rating,purple nutsedge; [9],0
same,Nutsedge plant response rating,purple nutsedge; [7],0
same,Nutsedge plant response rating,purple nutsedge; [8],0
same,Rice plant response rating,rice; [10],0
same,Rice plant response rating,rice; [11],0
same,"Plant response rating, Rice","rice; flood test species, listed under Postemergence, Rate 250 g/ha, scale 0 to 10, 0 is no effect, 10 is complete control",0
same,"Plant response rating, Ducksalad","duck salad; Postemergence (flood test), Rate 125 g/ha",0
same,Ducksalad plant response rating,duck salad; [10],0
same,Ducksalad plant response rating,duck salad; [11],0
same,"Plant response rating, Ducksalad","duck salad; flood test species, listed under Postemergence, Rate 250 g/ha",0
